Experimental data from EP1795186B1, “Flupirtin comprising medicament formulation with a controlled release of the active agent” (TEVA GmbH, priority 2005, dated 2007).

Test: Solubility in hydrochloric acid (gastric juice)
Type: physicochemical

Löslichkeit in Salzsäure (Magensaft): löslich
Structure (SMILES): CCOC(=O)Nc1ccc(NCc2ccc(F)cc2)nc1N [Flupirtinmaleat]
